pIC50: −log10 of the molar value. Some results are limits rather than exact numbers.

The test system of series [1] is human breast cancer MDA-MB-436 cells. As to the kind of experiment: MTT cell proliferation assay, cytotoxicity of compounds 3 and 4a-c. It is filed as cell-based. The conditions noted are these: for pIC50: Homo sapiens, MTT, BRCA1 deficient MDA-MB-436 cells; for reduction in potency (cytotoxicity): MDA-MB-436, relative to Staurosporine. The protocol:
The cytotoxicity assay was performed at Department of therapeutic chemistry/ National Research Center. cytotoxic activity of target compounds 3, 4a-c was determined via three independent experiments by 3-(4,5-dimethylthiazolyl-2)-2,5-diphenyltetrazolium bromide (MTT) cell proliferation assay against the cell proliferation of human breast cancer MDA-MB-436 cells carrying natural BRCA1 deficient [R].
For orientation: Formazan colour is commonly taken as a measure of viable cells.

For another series, the target named is T1, PARP-1 (Homo sapiens, UniProt P09874).
T1 construct: purchased Trevigen 4690-096-K
Briefly: In vitro PARP inhibition assay (HT F Homogeneous PARP Inhibition Assay Kit). The class given is biochemical. The procedure:
Olaparib was used as positive control. Fluorescence values under the condition of excitation wavelength (544 nm) and emission wavelength (590 nm) were measured using a multi-well spectrophotometer (Molecular Devices SpectraMax M5 microplate reader, Careforde, Chicago, USA). Then, the standard curve was drawn and the inhibition rate of each test compound was calculated. IC50 value of each compound was calculated using GraphPad Prism 6 software.

The subject of series [2] is solid tumor (Ehrlich Ascites Carcinoma). As to the kind of experiment: Biodistribution and tumor targeting in solid tumor-bearing mice. The class given is in vivo, Swiss Albino mice. The procedure:
To form a solid tumor, a 0.2 mL of Ehrlich Ascites Carcinoma fluid was administered intramuscularly in the right thigh of female Swiss Albino mice. The animals were well-cared until the tumors became obvious (7- 10 days). The parent tumor line (Ehrlich Ascites Carcinoma) was withdrawn from 7-day-old Swiss Albino donor females and diluted with sterile physiological saline solution to yield 12.5 x 10^6 cells/mL [52].
Biodistribution studies were performed by injecting the solid tumor-bearing mice intravenously with NGO-COOH nanosheets followed by injecting the radiolabeled complexes. The mice were divided into four groups (four mice per group) according to the designated time of dissection. Following the administration of the radiolabeled nanosheets, mice were dissected at 0.5, 1, 2, 4 h post injection (p.i). Blood, solid tumor, and major organs/tissues were collected and wet-weighed. The distribution of the radioactivity in each organ/ fluid was measured ex vivo, the radioactivity in each was detected by a gamma-counter (Perkin Elmer) as presented in Fig. 4. The results were expressed as mean percentage injected dose per gram (%ID/g ± SD).

A short description of series [3]: Biodistribution of radiolabeled complexes in normal mice. It is filed as in vivo, Albino mice.

T1 sequence (P09874 whole entry): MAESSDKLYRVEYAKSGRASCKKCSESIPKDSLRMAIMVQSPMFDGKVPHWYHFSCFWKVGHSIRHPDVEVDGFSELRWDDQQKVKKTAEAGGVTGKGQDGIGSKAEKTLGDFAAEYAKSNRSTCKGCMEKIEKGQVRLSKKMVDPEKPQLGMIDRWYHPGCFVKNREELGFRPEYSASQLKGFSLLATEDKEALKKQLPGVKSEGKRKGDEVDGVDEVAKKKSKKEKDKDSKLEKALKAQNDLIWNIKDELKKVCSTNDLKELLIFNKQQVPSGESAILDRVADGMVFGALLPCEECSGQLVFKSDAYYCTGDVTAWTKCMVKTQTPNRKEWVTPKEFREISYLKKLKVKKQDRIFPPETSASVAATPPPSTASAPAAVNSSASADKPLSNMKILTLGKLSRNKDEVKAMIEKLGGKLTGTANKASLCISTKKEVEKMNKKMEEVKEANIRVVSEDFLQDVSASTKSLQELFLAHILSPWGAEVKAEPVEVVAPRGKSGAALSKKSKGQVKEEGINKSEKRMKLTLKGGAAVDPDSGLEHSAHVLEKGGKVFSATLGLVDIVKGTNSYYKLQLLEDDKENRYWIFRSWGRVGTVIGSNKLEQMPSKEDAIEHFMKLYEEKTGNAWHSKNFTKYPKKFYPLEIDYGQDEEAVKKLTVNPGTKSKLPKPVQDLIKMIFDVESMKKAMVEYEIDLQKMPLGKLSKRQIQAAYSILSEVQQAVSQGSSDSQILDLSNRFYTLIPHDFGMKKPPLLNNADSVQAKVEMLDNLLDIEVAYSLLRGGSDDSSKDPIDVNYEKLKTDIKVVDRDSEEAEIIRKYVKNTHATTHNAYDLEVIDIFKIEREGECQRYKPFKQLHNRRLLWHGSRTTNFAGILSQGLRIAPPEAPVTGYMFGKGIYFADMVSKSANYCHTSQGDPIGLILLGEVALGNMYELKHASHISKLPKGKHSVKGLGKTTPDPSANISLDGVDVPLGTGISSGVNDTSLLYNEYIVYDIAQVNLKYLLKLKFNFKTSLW

In turn, `NNS(=O)(=O)c1ccc2c(=O)[nH]c(=O)[nH]c2c1` [Compound 3, 2,4-dioxo-1,2,3,4-tetrahydroquinazoline-7-sulfonohydrazide] had a melting point of 268 to 270 °C. For the same molecule, in series [1], the pIC50 is 8.22. In addition, the “times more potent than Staurosporine (cytotoxicity)” value in series [1] (MDA-MB-436, ratio of IC50) is recorded as “about 1.6 times”. Also, the pIC50 on PARP-1 is 6.58.
In turn, `O=c1[nH]c(=O)c2ccc(S(=O)(=O)Nc3nccs3)cc2[nH]1` [Compound 4c, 2,4-dioxo-N-(thiazol-2-yl)-1,2,3,4-tetrahydroquinazoline-7-sulfonamide] registered a melting point of 265 to 267 °C. Besides, in series [1], the pIC50 was 7.40 and the “reduction in potency (cytotoxicity)” value was found to be 4 folds. In addition, on PARP-1, the negative-log IC50 (pIC50) was 6.82.
On to `O=C(O)c1ccccc1NS(=O)(=O)c1ccc2c(=O)[nH]c(=O)[nH]c2c1` [Compound 4b, 2-(2,4-Dioxo-1,2,3,4-tetrahydroquinazoline-7-sulfonamido) benzoic acid], for which the melting point was 280 to 282 °C. Moreover, the negative-log IC50 (pIC50) against PARP-1 is 6.78.
For “[^99mTc]Tc-NGO-COOH-2,4-dioxo-1,2,3,4-tetrahydroquinazoline-7-sulfonohydrazide [^99mTc-NGO-COOH-3]”, the “target/nontarget (T/NT) ratio, tumor muscle to contralateral normal muscle” value in series [2] (mouse, in vivo, iv) amounted to 9.0. Further, the tumor uptake is 7.0 ± 0.70 %ID/g in series [2] (mouse, in vivo, iv, 0.5 h) and 12.0 ± 1.2 %ID/g in series [2] (mouse, in vivo, iv, 1 h). Besides, the blood uptake came out at 5.0 ± 0.5 %ID/g in series [3] (mouse, in vivo, iv, 0.5 h) and 1 ± 0.1 %ID/g in series [3] (mouse, in vivo, iv, 4 h). Moreover, the liver uptake in series [3] (mouse, in vivo, iv, 0.5 h) came out at 7.0 ± 0.7 %ID/g; in series [3] (mouse, in vivo, iv, 4 h) it was 15.0 ± 1.5 %ID/g.
As to “[^99mTc]Tc-2,4-dioxo-1,2,3,4-tetrahydroquinazoline-7-sulfonohydrazide [^99mTc-3]”, the tumor uptake was 5.0 ± 0.40 %ID/g in series [2] (solid tumor-bearing mice, i.v., 0.5 h p.i.); 6.5 ± 0.3 %ID/g in series [2] (solid tumor-bearing mice, i.v., 2 h p.i.); 6.0 ± 0.4 %ID/g in series [2] (solid tumor-bearing mice, i.v., 4 h p.i.). The blood uptake in series [3] (normal mice, i.v., 0.5 h p.i.) was 10.5 ± 1.4 %ID/g; in series [3] (normal mice, i.v., 4 h p.i.) it was 3.2 ± 0.4 %ID/g. Also, the liver uptake is recorded as 11 ± 1.7 %ID/g in series [3] (normal mice, i.v., 0.5 h p.i.); 12 ± 1.2 %ID/g in series [3] (normal mice, i.v., 1 h p.i.); 8 ± 1.3 %ID/g in series [3] (normal mice, i.v., 4 h p.i.).
As for `Cc1ccc(NS(=O)(=O)c2ccc3c(=O)[nH]c(=O)[nH]c3c2)cc1` [Compound 4a, 2,4-Dioxo-N-(p-tolyl)-1,2,3,4-tetrahydroquinazoline-7-sulfonamide], the melting point was above 300 °C. In addition, in series [1], the pIC50 is 7.30 and the “reduction in potency (cytotoxicity)” value is 5 folds. The molecule also had a pIC50 at PARP-1 of 6.36.

A word on the pIC50: it is −log10 of the IC50, conventionally taken in molar units. A lower pIC50 goes with a large IC50. What is called melting point is the temperature, or range, at which the solid turns liquid.

The record behind these values is paper PMC11087444, “Multi-functionalization of reduced graphene oxide nanosheets for tumor theragnosis: Synthesis, characterization, enzyme assay, in-silico study, radiolabeling and in vivo targeting evaluation” (DARU Journal of Pharmaceutical Sciences, 2023).
